Measurements taken from BigSolDB 2.1.

COP(=O)(NC(C)=O)SC (stereo unspecified)
Conditions	solubility (mole fraction)
in acetone, 299.45 K	0.068
in acetone, 302.6 K	0.0811
in acetone, 305.2 K	0.0923
in acetone, 306.4 K	0.0986
in acetone, 309.8 K	0.119
in acetone, 311.4 K	0.131
in acetone, 313.75 K	0.149
in acetone, 315.8 K	0.167
in dichloromethane, 292.9 K	0.176
in dichloromethane, 295.2 K	0.19
in dichloromethane, 297.3 K	0.203
in dichloromethane, 298.45 K	0.21
in dichloromethane, 299.6 K	0.217
in dichloromethane, 301.05 K	0.226
in dichloromethane, 302.3 K	0.233
in dichloromethane, 303.25 K	0.241
in ethyl acetate, 307.9 K	0.035
in ethyl acetate, 310.75 K	0.0408
in ethyl acetate, 314.2 K	0.049
in ethyl acetate, 318.4 K	0.0648
in ethyl acetate, 321.55 K	0.0779
in ethyl acetate, 324.95 K	0.0965
in ethyl acetate, 327.6 K	0.118
in isopropanol, 299.3 K	0.0606
in isopropanol, 303.95 K	0.0773
in isopropanol, 306.7 K	0.0925
in isopropanol, 310.75 K	0.118
in isopropanol, 313.35 K	0.137
in isopropanol, 316.45 K	0.163
in isopropanol, 319.45 K	0.193
in isopropanol, 322 K	0.224
